Assay results reported in PubChem BioAssay AID504539 (Broad Institute, 2011).

System: Cell-based prion protein 5' UTR reporter, plate reader
Experiment: prion protein 5' UTR mRNA inhibitors – cell-based, plate reader, cherry-picked samples, dose response (AID 504539)

| Compound | AC50 [nM] |
| --- | --- |
| CN(C)c1ccc(CCc2ccc(N)cc2)cc1 | 831 |
| O=C(Nc1ccc([N+](=O)[O-])cc1)C(=O)Nc1cccc(C(=O)O)c1 | 164 |
| Cn1ncnc2c(=O)n(C)c(=O)nc1-2 | 135 |
| Cc1ccc(Sc2c(CO)c(-c3ccccc3)nn2C)cc1 | 528 |
| CC(=O)O[C@H]1C(=O)[C@]2(C)[C@H]([C@H](OC(=O)c3ccccc3)[C@]3(O)C[C@H](OC(=O)[C@H](O)[C@@H](NC(=O)c4ccccc4)c4ccccc4)C(C)=C1C3(C)C)[C@]1(OC(C)=O)CO[C@@H]1C[C@@H]2O | 188 |
| COc1ccc(-c2nsc3c(N4CCCCC4)ncnc23)cc1 | 1680 |
| C=CCN=C1NN=C(c2ccc3c(c2)OCCO3)CS1 | 411 |
| CNc1c2cccc(C)c2nc2c(C(=O)NCCN(C)C)cccc12 | 307 |
| Cc1nn(-c2nc3ccccc3[nH]2)c(=O)c2ccccc12 | 145 |
| N#CC1=C(N)Oc2c(ccc3ccccc23)C1c1ccsc1 (stereo not given) | 831 |
| O=C(c1ccc(Cl)cc1)N1CCCCC(Sc2nnc(-c3ccc4c(c3)OCO4)o2)C1=O (stereo not given) | 419 |
| COC(=O)c1[nH]c2c(c1C)C(=O)CC(c1cccc(OC)c1)C2 (stereo not given) | 715 |
| Fc1ccc(-n2nnc(-c3cnc4ccccc4c3)n2)cc1 | 1040 |
| N#CC1=C(N)OC2=C(CCc3ccccc32)C1c1ccccc1 (stereo not given) | 945 |
| N#Cc1c(NC(=O)CSc2ncn[nH]2)sc2c1CCCCC2 | 82 |
| COC1C(O)C(C)OC(OC2CCC3(C=O)C(CCC4C3CCC3(C)C(C5=CC(=O)OC5)CCC43O)C2)C1O (stereo not given) | < 38 |
| CCOc1ccc2c(c1)C(C)=CC(C)(C)N2S(=O)(=O)c1ccc(C)cc1 | 1590 |
| Cc1ccc(C(C)C)c(OCc2ccc(C(=O)N/N=C/c3cccc(O)c3O)cc2)c1 | 1510 |
| Cc1ccc(OCC(=O)c2cc(C)n(-c3ccccc3)c2C)c([N+](=O)[O-])n1 | 3270 |
| CCc1ccn2cc(-c3ccc4c(c3)OCO4)nc2c1 | 384 |
| O=C(CN1C(=O)c2ccccc2S1(=O)=O)c1ccc2c(c1)OCCCO2 | 39 |
| Cc1cccc(-n2ncc3c(N(C)C4CCCCC4)ncnc32)c1 | 796 |

| Compound | AC50 [nM] |
| --- | --- |
| COC(=O)c1c(NC(=O)c2ccc([N+](=O)[O-])o2)sc2c1CCN(C(C)C)C2 | 2860 |
| Cc1cc(C)c(S(=O)(=O)Nc2ccc3c4c(cccc24)CC3)c(C)c1 | 1900 |
| CC(/C=C1\SC(=O)N(CCCC(=O)O)C1=O)=C\c1ccccc1 | 162 |
| COc1ccc(-c2nsc3c(N4CCCCC4C)ncnc23)cc1 (stereo not given) | 51 |
| Cc1ccc(-c2cn3cc(C)ccc3n2)cc1 | 113 |
| CC(C)CCCCCCCCCCCCC(=O)NCC(=O)NC1C(C)OC(Nc2ncnc3nc[nH]c23)C(O)C1O (stereo not given) | 73 |
| O=C(CCCc1ccccc1)c1ccc2c(c1)OCCO2 | 344 |
| O=c1oc2ccccc2cc1-c1cn(-c2ccccc2)c(=S)[nH]1 | 776 |
| O=C(CSc1nnc(-c2ccccc2)o1)Nc1ccccc1F | 675 |
| COc1cccc2c1C(=O)c1c(O)c3c(c(O)c1C2=O)CC(O)(C(C)=O)CC3OC1CC(N(C)C)C(O)C(C)O1 (stereo not given) | 165 |
| COc1cc(C2c3cc4c(cc3C(OC3OC5COC(c6cccs6)OC5C(O)C3O)C3COC(=O)C23)OCO4)cc(OC)c1O (stereo not given) | 657 |
| CN(C)c1ccc(/C=N/Nc2cccc(C(=O)O)c2)cc1 | 547 |
| CCN(CCO)c1ccc(N=Nc2cc(C)[nH]n2)cc1 | 471 |
| CC1CCN(c2ccc(-c3cccc(NC(=O)C(F)(F)F)c3)nn2)CC1 | 194 |
| COc1cc(C2c3cc4c(cc3OC(NNC(N)=O)C2C)OCO4)cc(OC)c1OC (stereo not given) | 822 |
| COc1ccccc1C(=O)Nc1nc2ccccc2[nH]1 | 178 |
| O=[N+]([O-])c1cccc2nc3ccccc3c(NCCCn3ccnc3[N+](=O)[O-])c12 | 76 |
| O=C(/C=C\Nc1ccc2c(c1)OCO2)c1ccccn1 | 173 |
| O=C(O)c1cccc(-c2noc(-c3cccc(Cl)c3)n2)c1 | 153 |
| CC(=O)O[C@H]1C(=O)[C@@]2(C)[C@H]([C@H](OC(=O)c3ccccc3)[C@]3(O)C[C@H](OC(=O)[C@H](O)C(NC(=O)c4ccccc4)c4ccccc4)C(C)=C1C3(C)C)[C@]1(OC(C)=O)CO[C@@H]1C[C@@H]2O (stereo not given in full) | 170 |
| CCN(CCCl)c1cc(CN(C)C)cc(NC(=O)c2ccc(C(=O)Nc3cc(CN(C)C)cc(N(CC)CCCl)c3)cc2)c1 | 472 |
| CC(=O)OC1CC2(O)C3CCC4CC(O)CCC4(C)C3CCC2(C)C1C1=CC(=O)OC1 (stereo not given) | 92 |

| Compound | AC50 [nM] |
| --- | --- |
| Cc1ccc2nc(-c3ccc4c(c3)OCCO4)cn2c1 | 110 |
| Cc1ccc(C(=O)c2cc([N+](=O)[O-])ccc2N2CCCCC2)cc1 | 848 |
| Cc1ccc(-n2nnc(-c3nccs3)n2)cc1 | 571 |
| COC(=O)Cc1[nH]n(-c2nc3ccccc3s2)c(=O)c1C(C)=Nc1ccc(C)cc1 | 401 |
| COCCn1c(C)cc(C(=O)CSc2nnnn2C2CCCC2)c1C | 1140 |
| CCN(CC)c1ccc2cc(-c3nc4ccccc4[nH]3)c(=O)oc2c1 | 868 |
| COC1C(O)C(C)OC(OC2CCC3(C)C(CCC4C3C(O)CC3(C)C(C5=CC(=O)OC5)CCC43O)C2)C1O (stereo not given) | 150 |
| COc1cc(SC)ccc1C(=O)Nc1ccc(Cl)cn1 | 567 |
| CC1=CC2OC3CC4OC(=O)C=CC=CC(C(C)O)OCC(O)C(C)CC(=O)OCC2(CC1O)C4(C)C31CO1 (stereo not given) | < 38 |
| CCCCCCN1C=CC(=C2C(=O)c3ccccc3C2=O)C=C1 | 369 |
| COc1cc(C2c3[nH]c4ccccc4c3CC3COC(=O)N32)cc(OC)c1O (stereo not given) | 270 |
| O=C(Nc1nccs1)c1cc2c(s1)CCCCC2 | 128 |
| CC(=O)OC1C(=O)OCC23CCC4(C)OC4C2OC2CC(OC(=O)C=CC=CC(=O)OCCC1C)C3(C)C21CO1 (stereo not given) | < 38 |
| CN1C2CCC1/C(=C/c1ccccn1)C(=O)/C2=C\c1ccccn1 | 773 |
| COc1cc(OC)c2c(-c3cccc(-c4ccc(C(C)=O)cc4)c3)cc(=O)oc2c1 | 1580 |
| CN(C)CCNc1ccc2ncn3c4ccc(O)cc4c(=O)c1c23 | 2470 |
| Cc1cccc2cc(C#N)c(SCC(=O)N3CC(=O)Nc4ccccc43)nc12 | 960 |
| Cc1ccc(-c2nnc(SCC(=O)Nc3ccccc3F)o2)cc1 | 284 |
| CC1CCc2c(sc(NC(=O)CSc3ncn[nH]3)c2C#N)C1 (stereo not given) | 257 |
| N/C(=N\OC(=O)c1ccc(Cl)cc1Cl)c1ccccn1 | 539 |
| O=C(O)c1ccc(N/N=C/c2ccc3c(c2)OCO3)cc1 | 419 |
| COc1cccc(C(=O)O/N=C(\N)c2ccccn2)c1 | 448 |

| Compound | AC50 [nM] |
| --- | --- |
| O=[N+]([O-])c1nn(-c2ccc3c(c2)OCCO3)n(O)c1=Nc1ccccc1 | 180 |
| Cc1ccc(C(=O)CN2C(=O)c3ccccc3S2(=O)=O)cc1 | 823 |
| CC(C)(C)C(=O)Nc1cc2nn(-c3ccccc3)nc2cc1Cl | < 38 |
| CCN1C/C(=C\c2cccc([N+](=O)[O-])c2)C(=O)/C(=C/c2cccc([N+](=O)[O-])c2)C1 | 2350 |
| Cc1ccc(C(=O)O/N=C(\N)c2ccccn2)cc1C | 708 |
| COc1cc(-c2noc(C)c2-c2ccc(N(C)C)nc2)cc(OC)c1OC | 358 |
| Clc1ccc2nc(-c3ccccc3)nc(C(Cl)Cl)c2c1 | 885 |
| CC(=O)CSc1ccc(-c2nc3cc(C)c(C)cc3[nH]2)cn1 | 434 |
| C/C(=N\NC(=O)c1ccccc1NC(=O)c1ccc(Cl)cc1)c1ccncc1 | 418 |
| COc1ccc(OC)c(Nc2c3c(nc4ccccc24)CCC3)c1 | 1600 |
| COc1c(C=O)c2c(c(OC)c1OC)-c1ccc(OC)c(=O)cc1C(NC(C)=O)CC2 (stereo not given) | 300 |
| CC(=O)O[C@H]1C[C@@H]2OC3C=C(C)CCC3(C)[C@@]1(C)[C@@]21CO1 (stereo not given in full) | 2070 |
| CC(C)(C)C1C/C(=C/c2ccccn2)C(=O)/C(=C/c2ccccn2)C1 (stereo not given) | 815 |
| Nc1ccc(-c2ncc(-c3ccccc3)o2)cc1 | 145 |
| COc1cc(C2C(C#N)=C(N)Oc3cc(N)ccc32)cc(OC)c1OC (stereo not given) | 614 |
| Cc1nn(-c2ccccc2)c2c1CC(=O)Nc1ccccc1-2 | 1960 |
| Cc1ccc(NC(=O)/C=C/c2ccco2)nc1 | 287 |
| Nc1ccc(Oc2cccc(Oc3ccc(N)cc3)c2)cc1 | 587 |
| Cc1ccc2nc(-c3ccccc3)cn2c1 | 210 |
| Cc1c(C(=O)OC2CCCC2)[nH]c2c1C(=O)CC(c1ccco1)C2 (stereo not given) | 791 |
| N/C(=N\OCc1ccc([N+](=O)[O-])cc1)c1ccccn1 | 219 |
| Cc1nc(SCC(=O)Nc2nc3ccccc3s2)c(C#N)c(C)c1C | < 38 |

| Compound | AC50 [nM] |
| --- | --- |
| COc1cc(C(=O)N2CCN(c3cccc(C)c3C)CC2)cc(OC)c1OC | 1410 |
| COc1ccc(-n2ncc3c(N4CCCCC4)ncnc32)cc1 | 661 |
| COc1ccc(C(=O)Nc2ccc(C)cn2)c(OC)c1 | 280 |
| O=C(Nc1nc2ccccc2[nH]1)c1ccccc1F | 210 |
| COc1ccc(OC)c(C2C3=C(COC3=O)Nc3cc4c(cc32)OCO4)c1 (stereo not given) | 197 |
| CCOc1ccc(NC(=O)Nc2cccc(C(=O)O)c2)cc1 | 136 |
| O=C(OCC(F)(F)F)c1cccc(COc2ccc3ccccc3c2)c1 | 376 |
| CCSc1nc(-c2ccccc2)nc(C(Cl)Cl)n1 | 1060 |
| COc1ccc(/C=C2\SC(=S)N(CCCC(=O)NNC(=O)c3ccccc3O)C2=O)cc1 | 630 |
| COc1ccc(C(=O)Nc2ccccc2C(=O)N/N=C/c2ccc(O)c(OC)c2)cc1 | 1400 |
| Cc1ccc(/C=C2\SC(=S)N(CCCC(=O)NNC(=O)c3ccccc3O)C2=O)cc1 | 428 |
| C/C=C/COC(=O)c1[nH]c2c(c1C)C(=O)CC(c1ccco1)C2 (stereo not given) | 660 |
| COC(=O)Cc1[nH]n(-c2nc3ccccc3s2)c(=O)c1C(C)=Nc1ccc(OC)cc1 | 108 |
| COc1cc2c(c(OC)c1OC)-c1ccc(O)cc1C(NC(C)=O)CC2 (stereo not given) | 128 |
| Cc1ccc(C(=O)c2cc([N+](=O)[O-])ccc2N2CCOCC2)c(C)c1 | 2940 |
| COc1ccc2[nH]c(-c3cccc(F)c3)cc(=O)c2c1 | 1550 |
| CCN(CC)c1ccc(C(=C2C=CC(=[N+](CC)CC)C=C2)c2ccccc2)cc1 | 892 |
| C=CCn1c(C)cc(C(=O)CN2C(=O)c3ccccc3S2(=O)=O)c1C | 249 |
| Cc1ccc(C(=O)O/N=C(\N)c2ccccn2)c(Cl)c1 | 197 |
| CCCCN=C[C@]12CCC(O)CC1(O)CCC1[C@@H]2CC[C@]2(C)[C@H](C3C=CC(=O)O3)CCC12O (stereo not given in full) | 243 |
| CCOc1ccc(/C=C2\SC(=S)N(CCC(=O)O)C2=O)cc1 | 277 |
| COC(=O)c1ccccc1NC(=O)Cn1c(-c2nonc2N)nc2ccccc21 | 605 |
